“Also recorded” adds a separate entry of the source. Non-standard residues stand in square brackets, D forms with d. Residues, ends and D or L forms follow the SMILES beside them. *: point of attachment. Phe(F5) = N[C@@H](Cc1c(F)c(F)c(F)c(F)c1F)C(=O)O; hArg = N=C(N)NCCCC[C@H](N)C(=O)O; 12Ado = NCCCCCCCCCCCC(=O)O; Nle = CCCC[C@H](N)C(=O)O; Orn = NCCC[C@H](N)C(=O)O; Abu = CC[C@H](N)C(=O)O; PhAc = O=C(Cc1ccccc1)*
Assays:
RT4 cells = assay: In vitro cell viability, urothelial cancer RT4; type: cell-based, human; conditions: 5 μM, 72 h; relative to MIA602 = 1; Table 3A
Protocol: (§1) The inhibitory effects of the various synthesized GHRH antagonists were tested in cell proliferation assays in various human cancer cell lines including stomach cancer (KATOIII, N87), colon cancer (HT-29), urothelial cancer (J82, RT4), pancreatic cancer (PANC-1, CFPAC-1), prostatic cancer (PC3), breast cancer (MX-1, HCC1806), ovarian cancer (SK-OV-3, OVCAR-3) and lung cancer (HCC827, H460).
(§2) Cell culture. Human cancer cell lines including pancreatic (PANC-1 and CFPAC-1), lung (HCC827 and H460), stomach (NCI-N87 and KATOIII), urothelial (J82, RT4), prostatic (PC3), breast (MX-1 and HCC 1806), colorectal (HT-29), and ovarian (SK-OV-3 and OVCAR-3) were obtained from the American Type Culture Collection (ATCC) and cultured at 37° C. in a humidified 95% air/5% CO2 atmosphere in the medium recommended by ATCC.
(§3) In vitro cell viability. Cell viability was analyzed as follows: cancer cells including pancreatic (PANC-1 and CFPAC-1), lung (HCC827 and H460), stomach (NCI-N87 and KATOIII), urothelial (J82, RT4), prostatic (PC3) and breast (MX-1 and HCC 1806), colorectal (HT-29) and ovarian (SK-OV-3 and OVCAR-3) were grown on 96 well plates to ˜60% confluence, the cells were starved for 24 h in culture medium containing 0.5% FBS. Cells were then treated with GHRH antagonists MIA602 AVR compounds at concentrations of 1, 2.5 or 5 μM, or vehicle (0.1% DMSO) in quintuplicates for 72 hours. The medium was replaced every 48 hours. Cell viability was measured using CellTiter 96 aqueous one solution kit (Promega). Inhibitory effects of tested AVR compounds in comparison to that of MIA602 are presented as inhibitory potency.
(§4) Inhibitory effects of selected AVR compounds in comparison to that of MIA602 are presented as inhibitory potency (e.g., percentage of inhibition). […] The cell lines tested including lung cancer HCC827 (FIG. 2A), pancreatic cancer CFPAC-1 (FIG. 2B), stomach cancer N87 (FIG. 2C), colon cancer HT-29 (FIG. 2D), breast cancers MX-1 and HCC1806 (FIGS. 2E, F). […]

[1] = system: C57Bl/6J mice treated with bleomycin; assay: Bleomycin lung injury model, micro-CT of lungs; type: in vivo, mouse; conditions: bleomycin plus MIA-602
Protocol: Experimental animals. 8-week old C57Bl/6J male mice (The Jackson Laboratory, Bar Harbor, ME) were used in these experiments. Mice weighed about 26 grams at the start. Mice were randomly allocated to the experimental groups and housed in identical filter top cages in a ventilated rack. Mice were exposed to a 12-hour light/dark cycle and had free access to standard laboratory chow and water.
(§5) Bleomycin and GHRH-R antagonist treatment. Mice were treated with 0.8 units of bleomycin (Bleomycin for Injection USP, Hospira, Lake Forest, IL) intraperitoneally (IP) on days 1, 3, 7, 10, 14 and 21 (Collins S, Chan-Li Y, Oh M, Vigeland C, Limjunyawong N, Mitzner W, Powell J D, Horton M R (2016). JCI Insight 1(4):1-13). Mice (randomly assigned) were simultaneously treated subcutaneously (sc) with MIA-602 (5 μg/day) or its vehicle (100 μL/day). MIA-602 was dissolved in DMSO (ACS grade; Sigma-Aldrich) and diluted 1:500 in normal saline for daily sc injection on days 0-21.
Tissue preparations. Mice were killed by CO2 inhalation before any treatment, or on days 14 or 28 for micro-CT scans of lungs and harvesting of lung tissue (Vande Velde G, Poelmans J, De Langhe E, Hillen A, Vanoirbeek J, Himmelreich U, Lories R (2016). Dis Model Mech 9:91). […]
Micro-CT. Mice in each group were assessed by micro-CT scans (Bruker SkyScan 1176 Low Dose Micro-CT, Knotich, Belgium) of the lungs after CO2 inhalation. […]

[2] = system: PAK1-STAT3/NF-κB in gastric cancer cells; conditions: Gan et al. 2016; cited from earlier work
PC3 cells = assay: In vitro cell viability, prostatic cancer PC3; type: cell-based, human; conditions: 5 μM, 72 h; relative to MIA602 = 1; Table 3A
Protocol: as §1, §2, §3, §4

[3] = system: C57Bl/6J mice treated with bleomycin; assay: RNAseq and pathway analysis of lung tissue of bleomycin-treated mice; type: in vivo, mouse; conditions: bleomycin 28 days, MIA-602 versus vehicle
Protocol: as §5
RNA isolation. RNA was extracted from fixed lung tissue in paraffin blocks using a Quick-RNA™ FFPE Kit (R1008, Zymo Research, Irvine, CA) following the manufacturer's protocol (Patel P, Selvarajah S, Guerard K, Bartlett J, Lapointe J, Berman D, Okello J, Park P (2017). PLoS ONE 12:e0179732). […]
RNAseq and Pathway analyses. […] Cluster generation and sequencing was done on the Illumina cBOT and HiSeq 3000 using reagents provided by Illumina, finally generating >32 million single-end 100 base reads per sample. […]
Gene counts were normalized using trimmed mean of M-values (TMM) method. Differential expression between groups was calculated with the exact test implemented in edgeR (Robinson M, McCarthy D, Smyth G (2010). Bioinformatics 26:139-140). […]

## CCCC[C@H](NC(=O)[C@@H](NC(=O)[C@H](CC(=O)O)NC(=O)[C@H](CCC(N)=O)NC(=O)[C@H](CC(C)C)NC(=O)[C@H](CC(C)C)NC(=O)[C@H](CCCN)NC(=O)[C@H](Cc1c[nH]cn1)NC(=O)[C@H](C)NC(=O)[C@H](CO)NC(=O)[C@H](CC(C)C)NC(=O)[C@H](CCC(N)=O)NC(=O)[C@H](CC)NC(=O)[C@H](CC(C)C)NC(=O)[C@@H](NC(=O)[C@H](CCCN)NC(=O)[C@H](Cc1c[nH]cn1)NC(=O)[C@H](Cc1ccc(OC)cc1)NC(=O)[C@H](CCCCNC(=N)N)NC(=O)[C@H](C)NC(=O)[C@@H](NC(=O)[C@H](Cc1c(F)c(F)c(F)c(F)c1F)NC(=O)[C@@H](NC(=O)[C@H](C)NC(=O)[C@H](CC(=O)O)NC(=O)[C@@H](CCCNC(=N)N)NC(=O)[C@H](Cc1ccc(O)cc1)NC(=O)CCCCCCCCCCCNC(=O)Cc1ccccc1)[C@@H](C)CC)[C@@H](C)O)C(C)C)[C@@H](C)CC)C(=O)N[C@H](CCCNC(=N)N)C(=O)N[C@@H](CCCCNC(=N)N)C(N)=O [MIA-602, PhAC-Ada, Tyr D-Arg, Asp, Ala, Ile, 5FPhe, Thr, Ala, Har, Tyr(Me), His, Orn, Val, Leu, Abu, Gin, Leu, Ser, Ala, His, Orn, Leu, Leu, Gin, Asp, Ile, Nle, D-Arg, Har NH2, reference compound] ({PhAc-12Ado}-Y[dR]DAI[Phe(F5)]TA[hArg]Y(Me)H[Orn]VL[Abu]QLSAH[Orn]LLQDI[Nle][dR][hArg]-NH2)
RT4 cells
  Relative inhibitory potency, Urothelial RT4: 1
[1]
  Infiltrative densities in lungs on micro-CT: less prominent infiltrative densities
[2]
  Signaling pathways in gastric cancer cells: downregulates p21 activated kinase and STAT3 and NFκB; also recorded: inhibits signaling pathways, including PAK1-STAT3/NF-κB
PC3 cells
  Relative inhibitory potency, Prostatic PC3: 1
[3]
  Lung gene expression, RNA-seq pathway analysis: suppression of the adaptive immune response, T cell differentiation and activation and cytokine production

Reference: patent US11993640B2, “Treating inflammatory lung disease” (United States Government as represented by the Department …, priority 2019, dated 2024)
